Paper PMC5786444, “Structural Basis for the Substrate Inhibition of Proline Utilization A by Proline” (Molecules : A Journal of Synthetic Chemistry and Natural …, 2017)

How the values were obtained:
[1] = target: T1, Proline utilization A (BjPutA) (Bradyrhizobium diazoefficiens, UniProt Q89E26, C792A); assay: X-ray crystal structure, […] Å, crystals soaked in […] L-proline; type: binding
T1 construct: gene putA; BjPutA C792A; 1949 of 2002 expected residues modeled in the asymmetric unit (dimer)
T1 sequence (Q89E26 1-999 C792A): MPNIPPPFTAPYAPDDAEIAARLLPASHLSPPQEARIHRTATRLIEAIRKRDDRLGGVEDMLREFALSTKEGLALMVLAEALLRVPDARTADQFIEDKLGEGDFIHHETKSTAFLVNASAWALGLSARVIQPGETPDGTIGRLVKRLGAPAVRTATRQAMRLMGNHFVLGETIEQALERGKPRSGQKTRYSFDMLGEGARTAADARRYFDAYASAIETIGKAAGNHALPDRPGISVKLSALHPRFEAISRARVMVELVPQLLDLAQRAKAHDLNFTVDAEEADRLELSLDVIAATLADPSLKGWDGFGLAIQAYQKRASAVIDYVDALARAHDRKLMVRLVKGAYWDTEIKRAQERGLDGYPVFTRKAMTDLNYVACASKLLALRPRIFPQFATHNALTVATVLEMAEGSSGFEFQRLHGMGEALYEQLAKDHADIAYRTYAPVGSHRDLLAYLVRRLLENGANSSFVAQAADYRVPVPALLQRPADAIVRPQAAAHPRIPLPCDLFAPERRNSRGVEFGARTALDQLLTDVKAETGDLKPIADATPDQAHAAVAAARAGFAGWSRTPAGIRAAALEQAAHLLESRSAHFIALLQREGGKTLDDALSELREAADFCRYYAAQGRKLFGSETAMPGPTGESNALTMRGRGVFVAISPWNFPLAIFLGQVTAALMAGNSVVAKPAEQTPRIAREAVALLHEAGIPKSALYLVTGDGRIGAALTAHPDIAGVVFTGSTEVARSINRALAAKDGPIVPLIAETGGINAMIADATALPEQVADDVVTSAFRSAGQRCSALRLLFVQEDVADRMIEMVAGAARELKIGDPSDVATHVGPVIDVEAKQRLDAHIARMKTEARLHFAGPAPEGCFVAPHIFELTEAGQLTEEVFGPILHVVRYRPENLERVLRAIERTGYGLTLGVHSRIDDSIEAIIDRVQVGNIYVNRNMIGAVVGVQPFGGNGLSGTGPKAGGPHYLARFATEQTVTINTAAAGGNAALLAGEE

[2] = target: T2, Proline utilization A (BjPutA) (Bradyrhizobium diazoefficiens, UniProt Q89E26, R456M); assay: steady-state GSALDH kinetics (NADH formation at […] nm), global fit to competitive inhibition; type: biochemical
T2 construct: gene putA; BjPutA R456M mutant (GSALDH activity measured)
T2 sequence (Q89E26 1-999 R456M): T1 sequence (Q89E26 1-999 C792A)

NC(CCC=O)C(=O)O = system: T3, NC(CCC=O)C(=O)O; assay: purified protein; type: biochemical, Bradyrhizobium diazoefficiens; conditions: NAD+ GSAL site of the GSALDH active site
T3 construct: BjPutA R456M mutant (GSALDH activity measured)

Compound: O=C(O)[C@@H]1CCCN1 [L-proline]
- X-ray crystal structure, 2.15 Å, crystals soaked in 2 M L-proline [1]: The carboxylate group interacts with Arg791, Ser793, and the backbone amine groups of Gly946 and Ala947.
- Ki [2]: 46.3 mM

Compound: Proline utilization A (BjPutA) (Bradyrhizobium diazoefficiens USDA 110; R456M)
- Km (NC(CCC=O)C(=O)O): 2400 µM
